According to patent US20150322033A1, “ANTIBACTERIAL AGENT” (priority 2012, published 2015):
Converted amounts (≈) assume the structure as drawn.

What follows are molecules tested on S. aureus FDA209P (ATCC 6538P) (assay: microbe, parasite or virus in culture). Settings: Staphylococcus aureus, read-out: MIC (mg/L) FDA209P.
Format: cell-based, Staphylococcus aureus
Description: (§1) S. aureus Mu50 (refer to Hiramatsu, K., Hanaki H., et al., J. Antimicrob. Chemother., 1997, 40(1), 135-6) or S. aureus FDA209P (ATCC 6538P) was cultured overnight at 37° C. in 4 mL of TBS (Tryptical Soy Broth, produced by Becton Dickinson) with shaking. After completion of the culture, the cells were suspended in fresh TBS to prepare a cell suspension showing an absorbance of 0.3 at 578 nm. Then, the cell suspension was diluted 500 times with CAMHB mentioned above.
(§2) CAMHB containing each test compound at each of the aforementioned concentrations was added to each well of a 96-well plate in a volume of 50 μL/well, the aforementioned cell suspension diluted 500 time was added to the well in a volume of 50 μL/well, and stationary culture was carried out overnight at 37° C.
(§3) MIC values (mg/L) of the flavones and quinolones against the strains were measured in the same manner as that of the measurement of MIC of Example 1, except that CAMHB containing each of the aforementioned flavones and quinolones prepared in Example 2 was used instead of CAMHB containing each of the test compounds.
(§4) MIC values of the flavones and quinolone for the strains were measured in the same manners as those of Example 1, except that S. aureus Mu50 NR-1 was also used as Staphylococcus aureus in addition to S. aureus FDA209P and S. aureus Mu50, cell suspensions of the strains were prepared.
(§5) In the same manner as that of Example 1, MIC values of M-246, M-21, J-Q21, and J-Q12.1 for Staphylococcus aureus were measured. M-246 and M-21 were obtained as commercial products, and as J-Q21 and J-Q12.1, those synthesized in Examples 6 and 7 were used.
With COc1c(O)cc2oc(-c3ccc(O)cc3)cc(=O)c2c1O [compound 26] the MIC was > 128 mg/L.

Same assay, conditions: Staphylococcus aureus; Example 1, Tables 1 to 10; read-out: MIC (mg/L) FDA209P
O.Oc1cc(O)c2c(c1)OC(c1ccc(O)c(O)c1)C(O)C2 (single isomer, unassigned; (+)) [compound 132, (+)-3,3′,4′,5,7-Flavanpentol Hydrate] gave an MIC of 128 mg/L. For COc1c(O)cc2oc(-c3ccc(O)cc3)c(OC)c(=O)c2c1O [compound 27], the MIC was > 128 mg/L. For COc1cc2oc(-c3ccc(O)cc3)cc(=O)c2c(O)c1OC [compound 28], the MIC was > 128 mg/L. For COc1cc(-c2oc3cc(O)c(OC)c(O)c3c(=O)c2OC)ccc1O [compound 29], the MIC was > 128 mg/L. For COc1ccc(-c2cc(=O)c3c(OC)c(OC)c(OC)c(OC)c3o2)cc1 [compound 30], the MIC was 128 mg/L (≈ 344 µM). For COc1cc2oc(-c3ccc(O)c(O)c3)cc(=O)c2c(O)c1OC [compound 31], the MIC was > 128 mg/L. In the case of COc1ccc(-c2oc3cc(OC)c(OC)c(O)c3c(=O)c2OC)cc1O [compound 33], the MIC is reported as > 128 mg/L. For COc1ccc(-c2cc(=O)c3c(O)c(O)c(O)cc3o2)cc1 [compound 34], the MIC was 128 mg/L (≈ 426 µM). In the case of CC(=O)Oc1cc(OC(C)=O)c2c(=O)cc(-c3ccc(OC(C)=O)c(OC(C)=O)c3)oc2c1 [compound 36], the MIC is reported as > 128 mg/L. O=c1c(O)c(-c2ccc(O)c(O)c2)oc2c(O)c(O)cc(O)c12 [compound 37] was tested, and the MIC was 128 mg/L (≈ 402 µM). COc1ccc(-c2cc(=O)c3c(OC)c(OC)c(OC)cc3o2)cc1O [compound 39] gave an MIC of 128 mg/L (≈ 357 µM). With COc1ccc(-c2cc(=O)c3c(O)c(OC)c(OC)cc3o2)cc1O [compound 40] the MIC was 128 mg/L (≈ 372 µM). With O=c1cc(-c2ccc(O)cc2)oc2cc(O)c(O)c(O)c12 [compound 41] the MIC was 128 mg/L (≈ 447 µM). In the case of COc1ccc(-c2cc(=O)c3c(OC)c(OC)c(OC)cc3o2)cc1OC [compound 42], the MIC is reported as > 128 mg/L. With COc1cc(OC)c2c(=O)cc(-c3cc(OC)c(OC)c(OC)c3)oc2c1 [compound 43] the MIC was > 128 mg/L. In the case of CC1(C)C=Cc2c(cc3oc(-c4ccc(O)cc4)cc(=O)c3c2O)O1 [compound 44], the MIC is reported as > 128 mg/L. In the case of O=c1cc(-c2ccc(O)c(-c3c(O)cc(O)c4c(=O)cc(-c5ccc(O)cc5)oc34)c2)oc2cc(O)cc(O)c12 [compound 45], the MIC is reported as > 128 mg/L. Molecule COc1cc(OC)c2c(=O)cc(-c3ccccc3)oc2c1C1=COC(C)(C)C1=O [compound 46] has an MIC of 128 mg/L (≈ 326 µM). COc1cc(O)c(CN(C)C)c2oc(-c3ccccc3)cc(=O)c12 [compound 47] showed an MIC of 128 mg/L (≈ 393 µM). For COc1cc(O)c(CN2CCOCC2)c2oc(-c3ccccc3)cc(=O)c12 [compound 50], the MIC was > 128 mg/L. With CCc1oc2cc(O)cc(O)c2c(=O)c1-c1ccc(OC)cc1 [compound 90] the MIC was 128 mg/L (≈ 410 µM).

Same assay, conditions: Staphylococcus aureus; Example 8, Table 17; read-out: MIC FDA209P
Molecule O=c1cc(-c2ccc(O)cc2)oc2c(C3CC3)c(O)cc(O)c12 [J-Q12.1, 8-Cyclopropyl-5,7-dihydroxy-2-(4-hydroxyphenyl)-chromen-4-one] has an MIC of 8 mg/L (≈ 25.8 µM). For O=c1cc(-c2ccc(O)cc2)oc2c(C3CC3)c(O)ccc12 [J-Q21, 8-Cyclopropyl-7-hydroxy-2-(4-hydroxyphenyl)chromen-4-one], the MIC was > 128 mg/L.

The molecules below were run on S. aureus Mu50 (assay: microbe, parasite or virus in culture). Settings: Example 1, Tables 1 to 10.
Format: cell-based, Staphylococcus aureus
Description: as §1, §2, §3, §4, §5
With O=c1c(O)c(-c2ccc(O)c(O)c2)oc2c(O)c(O)cc(O)c12 [compound 37] the “MIC (mg/L) Mu50” value was 64 mg/L (≈ 201 µM).

Same assay, conditions: Example 3, Table 13
“2-phenylchromen-4-one (2-phenyl-1-benzopyran-4-one) [No. 25, reference compound]” was tested, and the “MIC (mg/L) Mu50 (S80F, S84L)” value was 64 mg/L.

Same assay, conditions: Staphylococcus aureus, MU50, read-out: MIC (mg/L) Mu50, Example 1, Tables 1 to 10
For O.Oc1cc(O)c2c(c1)OC(c1ccc(O)c(O)c1)C(O)C2 (single isomer, unassigned; (+)) [compound 132, (+)-3,3′,4′,5,7-Flavanpentol Hydrate], the MIC was 128 mg/L. With COc1c(O)cc2oc(-c3ccc(O)cc3)c(OC)c(=O)c2c1O [compound 27] the MIC was > 128 mg/L. COc1cc2oc(-c3ccc(O)cc3)cc(=O)c2c(O)c1OC [compound 28] was tested, and the MIC was > 128 mg/L. With COc1cc(-c2oc3cc(O)c(OC)c(O)c3c(=O)c2OC)ccc1O [compound 29] the MIC was > 128 mg/L. For COc1ccc(-c2cc(=O)c3c(OC)c(OC)c(OC)c(OC)c3o2)cc1 [compound 30], the MIC was > 128 mg/L. With COc1cc2oc(-c3ccc(O)c(O)c3)cc(=O)c2c(O)c1OC [compound 31] the MIC was > 128 mg/L. COc1ccc(-c2oc3cc(OC)c(OC)c(O)c3c(=O)c2OC)cc1O [compound 33] gave an MIC of 128 mg/L (≈ 342 µM). COc1ccc(-c2cc(=O)c3c(O)c(O)c(O)cc3o2)cc1 [compound 34] showed an MIC of 128 mg/L (≈ 426 µM). CC(=O)Oc1cc(OC(C)=O)c2c(=O)cc(-c3ccc(OC(C)=O)c(OC(C)=O)c3)oc2c1 [compound 36] was tested, and the MIC was > 128 mg/L. O=c1c(O)c(-c2ccc(O)c(O)c2)oc2c(O)c(O)cc(O)c12 [compound 37] gave an MIC of 62 mg/L (≈ 195 µM). COc1ccc(-c2cc(=O)c3c(OC)c(OC)c(OC)cc3o2)cc1O [compound 39] showed an MIC of 128 mg/L (≈ 357 µM). In the case of COc1ccc(-c2cc(=O)c3c(O)c(OC)c(OC)cc3o2)cc1O [compound 40], the MIC is reported as 128 mg/L (≈ 372 µM). Work on O=c1cc(-c2ccc(O)cc2)oc2cc(O)c(O)c(O)c12 [compound 41] yielded an MIC of 128 mg/L (≈ 447 µM). For COc1ccc(-c2cc(=O)c3c(OC)c(OC)c(OC)cc3o2)cc1OC [compound 42], the MIC was > 128 mg/L. In the case of COc1cc(OC)c2c(=O)cc(-c3cc(OC)c(OC)c(OC)c3)oc2c1 [compound 43], the MIC is reported as > 128 mg/L. With CC1(C)C=Cc2c(cc3oc(-c4ccc(O)cc4)cc(=O)c3c2O)O1 [compound 44] the MIC was > 128 mg/L. O=c1cc(-c2ccc(O)c(-c3c(O)cc(O)c4c(=O)cc(-c5ccc(O)cc5)oc34)c2)oc2cc(O)cc(O)c12 [compound 45] was tested, and the MIC was > 128 mg/L. For COc1cc(OC)c2c(=O)cc(-c3ccccc3)oc2c1C1=COC(C)(C)C1=O [compound 46], the MIC was > 128 mg/L. For COc1cc(O)c(CN(C)C)c2oc(-c3ccccc3)cc(=O)c12 [compound 47], the MIC was > 128 mg/L. For COc1cc(O)c(CN2CCOCC2)c2oc(-c3ccccc3)cc(=O)c12 [compound 50], the MIC was > 128 mg/L.

Same assay, conditions: Staphylococcus aureus, MU50, read-out: MIC Mu50, Example 8, Table 17
With O=c1cc(-c2ccc(O)cc2)oc2c(C3CC3)c(O)cc(O)c12 [J-Q12.1, 8-Cyclopropyl-5,7-dihydroxy-2-(4-hydroxyphenyl)-chromen-4-one] the MIC was 8 mg/L (≈ 25.8 µM). Molecule O=c1cc(-c2ccc(O)cc2)oc2c(C3CC3)c(O)ccc12 [J-Q21, 8-Cyclopropyl-7-hydroxy-2-(4-hydroxyphenyl)chromen-4-one] has an MIC of 4 mg/L (≈ 13.6 µM).
